Test results from patent US20240415819A1, “MACROCYCLIC COMPOUNDS AS PROTEASOME SUBUNIT BETA TYPE-5 INHIBITORS” (Lead Discovery Center GmbH, priority 2021, published 2024).

Legend:
[1] = system: hPMBC; assay: Chymotrypsin-like ProteasomeGlo assay in hPBMC; assay type: cell-based; settings: Homo sapiens; read-out: Pglo hPBMC
Outline: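 IC50 derived from luminescent chymotrypsin-like proteasome activity (Suc-LLVY-Glo substrate plus luciferin detection reagent). Measured after 105 min compound exposure at 37 °C, 5% CO2. Cells were human B cells purified from buffy-coat PBMC.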

[2] = molecular target: T1, β5 subunit of the human immunoproteasome (IPS) (Homo sapiens, UniProt P28062); assay: β5 inhibition assay, human immunoproteasome (Suc-LLVY-AMC); assay type: biochemical; settings: IC50 class, Suc-LLVY-AMC substrate
T1 construct: purchased Boston Biochem E-370
Outline: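 β5 activity is read as liberated AMC fluorescence (355/460 nm) after 4 h dark reaction at RT with 22.6 μM Suc-LLVY-AMC, stopped by 1 μM bortezomib. Beforehand, 1 nM human IPS and compound sat 10 min at RT in HEPES pH 7.5 buffer containing NaCl, 0.02% SDS and DTT.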

| IC50 [1] [nM] | IC50 [2] [nM] | SMILES |
| --- | --- | --- |
| < 100 | < 100 | Cc1ccc2cc1CNC(=O)[C@H](CCc1ccccc1)NC(=O)[C@@H](NC(=O)CCc1ccc(Br)cc1)CC(=O)N1CCCC(CCO2)C1 (stereo partly drawn) [Compound 175, 3-(4-bromophenyl)-N-((9S,12S)-5^4-methyl-8,11,14-trioxo-9-phenethyl-4-oxa-7,10-diaza-1(3,1)-piperidina-5(1,3)-benzenacyclotetradecaphane-12-yl)propanamide] |
| < 100 | < 100 | Cc1ccc2cc1CNC(=O)[C@H](CCc1ccccc1)NC(=O)[C@@H](NC(=O)C1(N)COC1)CC(=O)N1CCCC(CCO2)C1 (stereo partly drawn) [Compound 158, 3-amino-N-((9S,12S)-5^4-methyl-8,11,14-trioxo-9-phenethyl-4-oxa-7,10-diaza-1(3,1)-piperidina-5(1,3)-benzenacyclotetradecaphane-12-yl)oxetane-3-carboxamide] |
| < 100 | < 100 | CNCCOCC(=O)N[C@H]1CC(=O)N2CCCC(CCOc3ccc(C)c(c3)CNC(=O)[C@H](CCc3ccccc3)NC1=O)C2 (stereo partly drawn) [Compound 130, N-((9S,12S)-5^4-methyl-8,11,14-trioxo-9-phenethyl-4-oxa-7,10-diaza-1(3,1)-piperidina-5(1,3)-benzenacyclotetradecaphane-12-yl)-2-(2-(methylamino)ethoxy)acetamide] |
| < 100 | < 100 | Cc1ccc2cc1CNC(=O)[C@H](CCc1ccccc1)NC(=O)[C@@H](NC(=O)C1CCN1)CC(=O)N1CCCC(CCO2)C1 (stereo partly drawn) [Compound 160, (2R)-N-((9S,12S)-5^4-methyl-8,11,14-trioxo-9-phenethyl-4-oxa-7,10-diaza-1(3,1)-piperidina-5(1,3)-benzenacyclotetradecaphane-12-yl)azetidine-2-carboxamide] |
| < 100 | < 100 | CC(=O)N[C@H]1CCCC(=O)N2CCCC(CCOc3ccc(C)c(c3)CNC(=O)[C@H](CCc3ccccc3)NC1=O)C2 (stereo partly drawn) [Compound 213, N-((9S,12S)-5^4-methyl-8,11,16-trioxo-9-phenethyl-4-oxa-7,10-diaza-1(3,1)-piperidina-5(1,3)-benzenacyclohexadecaphane-12-yl)acetamide] |
| < 100 | < 100 | Cc1ccc2cc1CNC(=O)[C@H](CCc1ccccc1)NC(=O)[C@@H](NC(=O)CN1CCCC1)CC(=O)N1CCCC(CCO2)C1 (stereo partly drawn) [Compound 89, N-((9S,12S)-5^4-methyl-8,11,14-trioxo-9-phenethyl-4-oxa-7,10-diaza-1(3,1)-piperidina-5(1,3)-benzenacyclotetradecaphane-12-yl)-2-(pyrrolidin-1-yl)acetamide] |
| 100 to 500 | < 100 | COc1ccc2cc1CNC(=O)[C@H](CCc1ccccc1)NC(=O)[C@@H](NC(C)=O)CC(=O)N1CCCC(CCO2)C1 (stereo partly drawn) [Compound 211, N-((9S,12S)-5^4-methoxy-8,11,14-trioxo-9-phenethyl-4-oxa-7,10-diaza-1(3,1)-piperidina-5(1,3)-benzenacyclotetradecaphane-12-yl)acetamide] |
| < 100 | < 100 | Cc1ccc2cc1CNC(=O)[C@H](CCc1ccccc1)NC(=O)[C@@H](NC(=O)C1(C)COC1)CC(=O)N1CCCC(CCO2)C1 (stereo partly drawn) [Compound 287, 3-methyl-N-((9S,12S)-5^4-methyl-8,11,14-trioxo-9-phenethyl-4-oxa-7,10-diaza-1(3,1)-piperidina-5(1,3)-benzenacyclotetradecaphane-12-yl)oxetane-3-carboxamide] |
| < 100 | < 100 | Cc1ccc2cc1CNC(=O)[C@H](CCc1ccccc1)NC(=O)[C@@H](NC(=O)C(C)(C)CO)CC(=O)N1CCCC(CCO2)C1 (stereo partly drawn) [Compound 284, 3-hydroxy-2,2-dimethyl-N-((9S,12S)-5^4-methyl-8,11,14-trioxo-9-phenethyl-4-oxa-7,10-diaza-1(3,1)-piperidina-5(1,3)-benzenacyclotetradecaphane-12-yl)propanamide] |

| SMILES | IC50 [1] [nM] | IC50 [2] [nM] |
| --- | --- | --- |
| COCCOCCOCCOC(=O)N[C@H]1CC(=O)N2CCCC(CCOc3ccc(C)c(c3)CNC(=O)[C@H](CCc3ccccc3)NC1=O)C2 (stereo partly drawn) [Compound 220, 2-(2-(2-methoxyethoxy)ethoxy)ethyl ((9R,12R)-5^4-methyl-8,11,14-trioxo-9-phenethyl-4-oxa-7,10-diaza-1(3,1)-piperidina-5(1,3)-benzenacyclotetradecaphane-12-yl)carbamate] | < 100 | < 100 |
